Test results as given in PubChem BioAssay (NCI).
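Here, GI50 denotes the concentration required for 50% inhibition of growth. TGI denotes the concentration required for complete inhibition of growth.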

Tests used:
Experiment in all cases: NCI-60 cell line screen, 384-well format
NCI-H23 lung = system: NCI-H23 lung
MDA-MB-468 breast = system: MDA-MB-468 breast
DU-145 prostate = system: DU-145 prostate
SNB-19 CNS = system: SNB-19 CNS
SN12C renal = system: SN12C renal
K-562 leukemia = system: K-562 leukemia
SNB-75 CNS = system: SNB-75 CNS
OVCAR-4 ovarian = system: OVCAR-4 ovarian
RXF 393 renal = system: RXF 393 renal
SF-268 CNS = system: SF-268 CNS
LOX IMVI melanoma = system: LOX IMVI melanoma
KM12 colon = system: KM12 colon
MALME-3M melanoma = system: MALME-3M melanoma
SK-OV-3 ovarian = system: SK-OV-3 ovarian
HL-60(TB) leukemia = system: HL-60(TB) leukemia
M14 melanoma = system: M14 melanoma
HT29 colon = system: HT29 colon
BT-549 breast = system: BT-549 breast
A549 NSCLC = system: A549 NSCLC
CCRF-CEM leukemia = system: CCRF-CEM leukemia
MDA-MB-231 breast = system: MDA-MB-231 breast
MDA-MB-435 melanoma = system: MDA-MB-435 melanoma
SF-539 CNS = system: SF-539 CNS
NCI-H226 lung = system: NCI-H226 lung
SF-295 CNS = system: SF-295 CNS
HOP-62 NSCLC = system: HOP-62 NSCLC
NCI-H522 lung = system: NCI-H522 lung
SR leukemia = system: SR leukemia
MCF7 breast = system: MCF7 breast
OVCAR-5 ovarian = system: OVCAR-5 ovarian
HS 578T breast = system: HS 578T breast
HOP-92 NSCLC = system: HOP-92 NSCLC
786-0 renal = system: 786-0 renal
UACC-257 melanoma = system: UACC-257 melanoma
A498 renal = system: A498 renal
NCI-H322M lung = system: NCI-H322M lung
NCI-H460 NSCLC = system: NCI-H460 NSCLC
OVCAR-3 ovarian = system: OVCAR-3 ovarian
EKVX NSCLC = system: EKVX NSCLC
ACHN renal = system: ACHN renal
SW-620 colon = system: SW-620 colon
RPMI-8226 leukemia = system: RPMI-8226 leukemia
SK-MEL-5 melanoma = system: SK-MEL-5 melanoma
OVCAR-8 ovarian = system: OVCAR-8 ovarian
UO-31 renal = system: UO-31 renal
T-47D breast = system: T-47D breast
IGROV1 ovarian = system: IGROV1 ovarian
TK-10 renal = system: TK-10 renal
UACC-62 melanoma = system: UACC-62 melanoma
COLO 205 colon = system: COLO 205 colon
NCI/ADR-RES ovarian = system: NCI/ADR-RES ovarian
HCC-2998 colon = system: HCC-2998 colon
MOLT-4 leukemia = system: MOLT-4 leukemia
HCT-15 colon = system: HCT-15 colon
U251 glioblastoma = system: U251 glioblastoma
CAKI-1 renal = system: CAKI-1 renal
SK-MEL-28 melanoma = system: SK-MEL-28 melanoma
PC-3 prostate = system: PC-3 prostate

COc1ccc(Br)cc1NC(=O)Nc1cccc2c1ccn2Cc1ccnc(N)c1
GI50 (NCI-H23 lung): 9.53 µM
TGI (NCI-H23 lung): 21.6 µM
GI50 (MDA-MB-468 breast): 2.81 µM
TGI (MDA-MB-468 breast): 5.07 µM
GI50 (DU-145 prostate): 12.9 µM
TGI (DU-145 prostate): 27.9 µM
GI50 (SNB-19 CNS): 9.24 µM
TGI (SNB-19 CNS): 21.7 µM
GI50 (SN12C renal): 6.14 µM
TGI (SN12C renal): 19.2 µM
GI50 (K-562 leukemia): 1.47 µM
TGI (K-562 leukemia): 2.81 µM
GI50 (SNB-75 CNS): 14.1 µM
TGI (SNB-75 CNS): 29.7 µM
GI50 (OVCAR-4 ovarian): 3.72 µM
TGI (OVCAR-4 ovarian): 9.86 µM
GI50 (RXF 393 renal): 6.56 µM
TGI (RXF 393 renal): 18.7 µM
GI50 (SF-268 CNS): 9.97 µM
TGI (SF-268 CNS): 21.9 µM
GI50 (LOX IMVI melanoma): 4.85 µM
TGI (LOX IMVI melanoma): 15.2 µM
GI50 (KM12 colon): 2.54 µM
TGI (KM12 colon): 5.81 µM
GI50 (MALME-3M melanoma): 7.13 µM
TGI (MALME-3M melanoma): 19.9 µM
GI50 (SK-OV-3 ovarian): 8.96 µM
TGI (SK-OV-3 ovarian): 21.1 µM
GI50 (HL-60(TB) leukemia): 1.87 µM
TGI (HL-60(TB) leukemia): 4.64 µM
GI50 (M14 melanoma): 6.29 µM
TGI (M14 melanoma): 18.1 µM
GI50 (HT29 colon): 2.01 µM
TGI (HT29 colon): 4.13 µM
GI50 (BT-549 breast): 9.64 µM
TGI (BT-549 breast): 21.5 µM
GI50 (A549 NSCLC): 7.56 µM
TGI (A549 NSCLC): 20.2 µM
GI50 (CCRF-CEM leukemia): 2.49 µM
TGI (CCRF-CEM leukemia): 5.33 µM
GI50 (MDA-MB-231 breast): 13.2 µM
TGI (MDA-MB-231 breast): 26.1 µM
GI50 (MDA-MB-435 melanoma): 10.9 µM
TGI (MDA-MB-435 melanoma): 23 µM
GI50 (SF-539 CNS): 4.44 µM
TGI (SF-539 CNS): 18 µM
GI50 (NCI-H226 lung): 5.77 µM
TGI (NCI-H226 lung): 17.9 µM
GI50 (SF-295 CNS): 2.82 µM
TGI (SF-295 CNS): 8.47 µM
GI50 (HOP-62 NSCLC): 11.7 µM
TGI (HOP-62 NSCLC): 24.1 µM
GI50 (NCI-H522 lung): 3.51 µM
TGI (NCI-H522 lung): 10.6 µM
GI50 (SR leukemia): 1.75 µM
TGI (SR leukemia): 3.72 µM
GI50 (MCF7 breast): 5.26 µM
TGI (MCF7 breast): 18.3 µM
GI50 (OVCAR-5 ovarian): 11.8 µM
TGI (OVCAR-5 ovarian): 24.6 µM
GI50 (HS 578T breast): 6.06 µM
TGI (HS 578T breast): 17.8 µM
GI50 (HOP-92 NSCLC): 5.73 µM
TGI (HOP-92 NSCLC): 18.3 µM
GI50 ([…]-0 renal): 4.23 µM
TGI (786-0 renal): 16.6 µM
GI50 (UACC-257 melanoma): 4.42 µM
TGI (UACC-257 melanoma): 14.2 µM
GI50 (A498 renal): 3.56 µM
TGI (A498 renal): 13.5 µM
GI50 (NCI-H322M lung): 8.46 µM
TGI (NCI-H322M lung): 21.4 µM
GI50 (NCI-H460 NSCLC): 3.15 µM
TGI (NCI-H460 NSCLC): 9.4 µM
GI50 (OVCAR-3 ovarian): 10 µM
TGI (OVCAR-3 ovarian): 21.7 µM
GI50 (EKVX NSCLC): 8.67 µM
TGI (EKVX NSCLC): 22 µM
GI50 (ACHN renal): 7.08 µM
TGI (ACHN renal): 20.3 µM
GI50 (SW-620 colon): 12.4 µM
TGI (SW-620 colon): 25 µM
GI50 (RPMI-8226 leukemia): 2.35 µM
TGI (RPMI-8226 leukemia): 6.39 µM
GI50 (SK-MEL-5 melanoma): 4.55 µM
TGI (SK-MEL-5 melanoma): 15.4 µM
GI50 (OVCAR-8 ovarian): 11.9 µM
TGI (OVCAR-8 ovarian): 24.5 µM
GI50 (UO-31 renal): 12.2 µM
TGI (UO-31 renal): 24.9 µM
GI50 (T-47D breast): 3.77 µM
TGI (T-47D breast): 11.8 µM
GI50 (IGROV1 ovarian): 11.3 µM
TGI (IGROV1 ovarian): 23.6 µM
GI50 (TK-10 renal): 6.85 µM
TGI (TK-10 renal): 20 µM
GI50 (UACC-62 melanoma): 5.8 µM
TGI (UACC-62 melanoma): 18.6 µM
GI50 (COLO 205 colon): 5.82 µM
TGI (COLO 205 colon): 18.2 µM
GI50 (NCI/ADR-RES ovarian): 10.5 µM
TGI (NCI/ADR-RES ovarian): 23 µM
GI50 (HCC-2998 colon): 3.51 µM
TGI (HCC-2998 colon): 8.43 µM
GI50 (MOLT-4 leukemia): 1.56 µM
TGI (MOLT-4 leukemia): 3.55 µM
GI50 (HCT-15 colon): 2.02 µM
TGI (HCT-15 colon): 3.63 µM
GI50 (U251 glioblastoma): 6.92 µM
TGI (U251 glioblastoma): 19.5 µM
GI50 (CAKI-1 renal): 10.7 µM
TGI (CAKI-1 renal): 22.8 µM
GI50 (SK-MEL-28 melanoma): 11.5 µM
TGI (SK-MEL-28 melanoma): 23.7 µM
GI50 (PC-3 prostate): 6.67 µM
TGI (PC-3 prostate): 18.9 µM
